Where a name gives a salt, the structure may show the parent alone. Read-outs that look alike come from different tables or passages of the source.
Assays:
[1] = Effectiveness as liberating agent for bilirubin (general statement); type: in vitro ADME
Excerpt: (§1) The term "liberating agent" as used herein defines a reagent which when added to a body fluid, increases the ratio of a free soluble chemical to the total content of that chemical in the body fluid. The total content is the aggregate of both the free soluble and bound states of the chemical. More than one physical mechanism can be encountered with the same resultant advantageous partitioning of the target chemical from the bound to the free soluble phase. […] In general, liberating agents as herein defined are useful in body fluids and in vivo.

[2] = test system: human albumin; test: Free chlorpromazine in human albumin solution with ethanol (differential solution pH change); type: in vitro ADME; details: ethanol 0 to 1.0% v/v; room temperature
Protocol: Chlorpromazine HCl, a tranquilizer, was added to a human albumin solution at room temperature and allowed to equilibrate. Differential solution pH changes, related to free drug concentration, were measured.

[3] = less than two percent by volume (% v/v); barbiturates (thiopental, secobarbital, pentobarbital), tricyclics (imipramine, chlorpromazine)
Excerpt: as §1

[4] = test system: human albumin
Protocol: Imipramine HCl, an antidepressant, was added to a human albumin solution at room temperature and allowed to equilibrate. Differential solution pH changes, related to free drug concentration, were measured. Ethanol concentrations of 0, 0.2, 0.4, 0.6, 0.8 and 1.0% v/v were tested.

[5] = Free drug concentration of thiopental in fresh human plasma with ethanol (thin layer chromatography); type: in vitro ADME; details: ethanol 0 to 1.0% v/v, room temperature
Protocol: Thiopental was added to fresh human plasma at room temperature and allowed to equilibrate. Thin layer chromatography, used as an indicator of free drug concentration, was compared to thiopental calibrated plates. Ethanol concentrations of 0, 0.1, 0.2, 0.3, 0.4, 0.5, 0.6, 0.7, 0.8 and 1.0% v/v were tested. A maximum free drug concentration occurred at and above 0.6% v/v.

[6] = Thiopental in fresh human plasma with ethanol, equilibrated with coated activated charcoal (uv relative absorbance); type: in vitro ADME
Protocol: Thiopental was added to fresh human plasma at room temperature and allowed to equilibrate. Relative absorbances, proportional to free drug concentration, were measured spectrophotometrically (uv). Ethanol concentrations of 0, 0.4, 0.7, 1.0, and 1.4% v/v were tested. Drug/plasma and drug/plasma/ethanol solutions were equilibrated with coated activated charcoal.

[7] = test system: human albumin; test: Free thiopental in human albumin solution with sodium lauryl sulfate (differential solution pH change); type: in vitro ADME; details: sodium lauryl sulfate 0, 2, 4, 6, 8, and 10 mg/ml; room temperature
Protocol: Thiopental was added to a human albumin solution at room temperature and allowed to equilibrate. Differential solution pH changes, related to free drug concentration, were measured.

[8] = Effectiveness as liberating agent for thiopental (general statement); type: in vitro ADME; details: specific drugs such as thiopental
Excerpt: as §1

Structure (SMILES): CC(=O)Oc1ccccc1C(=O)O [acetylsalicylic acid]
- specificity as liberating agent [1]: specific for bilirubin

Structure (SMILES): CN(C)CCCN1c2ccccc2Sc2ccc(Cl)cc21 [Chlorpromazine HCl]
- free soluble concentration of the drug [2]: increases in free soluble concentration

Structure (SMILES): CCO [ethanol]
- effectiveness as liberating agent [3]: effective

Structure (SMILES): CN(C)CCCN1c2ccccc2CCc2ccccc21 [Imipramine HCl]
- free soluble drug concentration (differential pH responses) [4]: significant increases in the free soluble drug concentration

Structure (SMILES): CCCC(C)C1(CC)C(=O)NC(=S)NC1=O (centres unmarked) [Thiopental]
- ethanol concentration at and above which maximum free drug concentration occurred [5]: ≥ 0.6 % v/v
- adsorption of the drug by charcoal ([6]; 0 to 1.4% v/v ethanol): significant increased adsorption of the drug by charcoal
- change in relative absorbance ([6]; from 0 to 1.4% v/v ethanol): 13%
- differential solution pH change [7]: continuous pH change
- free soluble drug concentration [7]: increasing free soluble drug concentrations

Structure (SMILES): CCCCCCCCCCCCS(=O)(=O)[O-].[Na+] [sodium lauryl sulfonate]
- effectiveness as liberating agent [8]: effective

Structure (SMILES): CCCCCCCCCCCC(=O)O [lauric acid]
- effectiveness as liberating agent [8]: effective

— patent US4401430A, “Method of and apparatus for detoxifying mammalian hosts” (priority 1981, dated 1983)
